Test results as given in the NIST ThermoML archive (doi:10.1021/je100472t).
± gives the expanded uncertainty stated by the source.

Test: xn = mol fraction of the nth substance listed
Details: 101 kPa, Liquid; for speed of sound: Pulse-echo method; for mass density: Vibrating tube method

CNc1ccccc1 [N-methylaniline] + CCC(C)=O
Details | mass density [kg/m3] | speed of sound [m/s]
293.15 K, x2 = 0.0627 | 977.942 ± 0.74 | 1562.9 ± 2
293.15 K, x2 = 0.1133 | 970.977 ± 0.68 | 1546.9 ± 2
293.15 K, x2 = 0.1564 | 964.888 ± 0.63 | 1532.9 ± 1.9
293.15 K, x2 = 0.2058 | 957.75 ± 0.57 | 1517 ± 1.9
293.15 K, x2 = 0.2538 | 950.572 ± 0.53 | 1501 ± 1.8
293.15 K, x2 = 0.3018 | 943.182 ± 0.48 | 1484.8 ± 1.7
293.15 K, x2 = 0.3464 | 936.057 ± 0.44 | 1469.4 ± 1.6
293.15 K, x2 = 0.3938 | 928.444 ± 0.4 | 1453 ± 1.6
293.15 K, x2 = 0.4435 | 920.205 ± 0.36 | 1435.6 ± 1.5
293.15 K, x2 = 0.4907 | 912.022 ± 0.33 | 1418.5 ± 1.4
293.15 K, x2 = 0.5508 | 901.21 ± 0.29 | 1396.2 ± 1.4
293.15 K, x2 = 0.5959 | 892.779 ± 0.27 | 1378.9 ± 1.3
293.15 K, x2 = 0.6529 | 881.753 ± 0.24 | 1356.6 ± 1.2
293.15 K, x2 = 0.7489 | 862.241 ± 0.2 | 1318.2 ± 1.1
293.15 K, x2 = 0.7938 | 852.894 ± 0.19 | 1300 ± 1.1
293.15 K, x2 = 0.8492 | 840.63 ± 0.17 | 1277 ± 0.98
293.15 K, x2 = 0.8981 | 829.68 ± 0.16 | 1256.7 ± 0.92
293.15 K, x2 = 0.9525 | 816.716 ± 0.15 | 1232.9 ± 0.86
298.15 K, x2 = 0.076 | 972.066 ± 0.72 | 1540.1 ± 2
298.15 K, x2 = 0.1115 | 967.149 ± 0.68 | 1528.8 ± 2
298.15 K, x2 = 0.1566 | 960.718 ± 0.62 | 1514.2 ± 1.9
298.15 K, x2 = 0.2076 | 953.334 ± 0.57 | 1497.6 ± 1.8
298.15 K, x2 = 0.2589 | 945.633 ± 0.52 | 1480.6 ± 1.8
298.15 K, x2 = 0.2967 | 939.765 ± 0.48 | 1467.7 ± 1.7
298.15 K, x2 = 0.3471 | 931.809 ± 0.44 | 1450.5 ± 1.6
298.15 K, x2 = 0.3973 | 923.563 ± 0.4 | 1432.8 ± 1.6
298.15 K, x2 = 0.4477 | 915.055 ± 0.36 | 1414.8 ± 1.5
298.15 K, x2 = 0.495 | 906.694 ± 0.33 | 1397.2 ± 1.4
298.15 K, x2 = 0.5471 | 897.284 ± 0.3 | 1377.8 ± 1.4
298.15 K, x2 = 0.5992 | 887.579 ± 0.27 | 1357.9 ± 1.3
298.15 K, x2 = 0.6921 | 869.471 ± 0.22 | 1321.7 ± 1.2
298.15 K, x2 = 0.7463 | 858.202 ± 0.2 | 1299.5 ± 1.1
298.15 K, x2 = 0.8007 | 846.555 ± 0.19 | 1277 ± 1
298.15 K, x2 = 0.847 | 836.277 ± 0.17 | 1257.5 ± 0.98
298.15 K, x2 = 0.8993 | 824.346 ± 0.16 | 1235.1 ± 0.92
298.15 K, x2 = 0.9472 | 813 ± 0.16 | 1214.5 ± 0.86
303.15 K, x2 = 0.0641 | 969.669 ± 0.73 | 1526 ± 2
303.15 K, x2 = 0.1123 | 962.964 ± 0.67 | 1510.7 ± 2
303.15 K, x2 = 0.1581 | 956.434 ± 0.62 | 1495.9 ± 1.9
303.15 K, x2 = 0.2036 | 949.789 ± 0.57 | 1481.1 ± 1.9
303.15 K, x2 = 0.2591 | 941.381 ± 0.52 | 1462.5 ± 1.8
303.15 K, x2 = 0.3061 | 934.049 ± 0.47 | 1446.5 ± 1.7
303.15 K, x2 = 0.3513 | 926.789 ± 0.43 | 1430.8 ± 1.6
303.15 K, x2 = 0.4022 | 918.424 ± 0.39 | 1412.9 ± 1.6
303.15 K, x2 = 0.4472 | 910.653 ± 0.36 | 1396.5 ± 1.5
303.15 K, x2 = 0.5025 | 900.926 ± 0.32 | 1376.1 ± 1.4
303.15 K, x2 = 0.5536 | 891.605 ± 0.29 | 1356.9 ± 1.4
303.15 K, x2 = 0.5984 | 883.203 ± 0.27 | 1339.7 ± 1.3
303.15 K, x2 = 0.6489 | 873.485 ± 0.24 | 1320.1 ± 1.2
303.15 K, x2 = 0.6969 | 863.705 ± 0.22 | 1300.7 ± 1.2
303.15 K, x2 = 0.7543 | 851.719 ± 0.2 | 1277.1 ± 1.1
303.15 K, x2 = 0.8047 | 840.797 ± 0.19 | 1256 ± 1
303.15 K, x2 = 0.8497 | 830.818 ± 0.18 | 1237.1 ± 0.97
303.15 K, x2 = 0.8965 | 819.999 ± 0.17 | 1216.8 ± 0.91
303.15 K, x2 = 0.9524 | 806.615 ± 0.16 | 1192.2 ± 0.85

Nc1ccccc1 [aniline] + CCC(C)=O
Details | mass density [kg/m3] | speed of sound [m/s]
293.15 K, x2 = 0.058 | 1011.29 ± 0.095 | 1633.7 ± 0.94
293.15 K, x2 = 0.1122 | 1001.34 ± 0.089 | 1612.2 ± 0.93
293.15 K, x2 = 0.1576 | 993.678 ± 0.09 | 1594.7 ± 0.93
293.15 K, x2 = 0.2052 | 985.068 ± 0.093 | 1576 ± 0.92
293.15 K, x2 = 0.2543 | 976.056 ± 0.096 | 1556.7 ± 0.91
293.15 K, x2 = 0.3043 | 966.42 ± 0.099 | 1536.6 ± 0.91
293.15 K, x2 = 0.3562 | 956.208 ± 0.1 | 1515.5 ± 0.9
293.15 K, x2 = 0.4059 | 946.279 ± 0.11 | 1495.2 ± 0.9
293.15 K, x2 = 0.453 | 936.5 ± 0.11 | 1475.2 ± 0.89
293.15 K, x2 = 0.5048 | 925.617 ± 0.11 | 1453.2 ± 0.88
293.15 K, x2 = 0.5443 | 917.103 ± 0.12 | 1435.8 ± 0.88
293.15 K, x2 = 0.612 | 902.143 ± 0.12 | 1405.4 ± 0.87
293.15 K, x2 = 0.648 | 894.022 ± 0.12 | 1389 ± 0.86
293.15 K, x2 = 0.7044 | 880.787 ± 0.13 | 1362.1 ± 0.86
293.15 K, x2 = 0.7754 | 863.737 ± 0.13 | 1328.6 ± 0.85
293.15 K, x2 = 0.8081 | 855.598 ± 0.14 | 1311.3 ± 0.84
293.15 K, x2 = 0.8493 | 845.213 ± 0.14 | 1290.5 ± 0.83
293.15 K, x2 = 0.9027 | 831.249 ± 0.14 | 1262.9 ± 0.83
293.15 K, x2 = 0.9476 | 819.373 ± 0.15 | 1239.6 ± 0.82
298.15 K, x2 = 0.056 | 1007.34 ± 0.091 | 1615.4 ± 0.93
298.15 K, x2 = 0.1188 | 997.647 ± 0.089 | 1593.6 ± 0.93
298.15 K, x2 = 0.1547 | 990.216 ± 0.093 | 1576.9 ± 0.92
298.15 K, x2 = 0.2038 | 981.189 ± 0.095 | 1557.5 ± 0.91
298.15 K, x2 = 0.2563 | 971.23 ± 0.098 | 1536.5 ± 0.91
298.15 K, x2 = 0.3064 | 961.559 ± 0.1 | 1516.3 ± 0.9
298.15 K, x2 = 0.3474 | 953.414 ± 0.1 | 1499.6 ± 0.9
298.15 K, x2 = 0.4089 | 940.989 ± 0.11 | 1474.1 ± 0.89
298.15 K, x2 = 0.4523 | 932.032 ± 0.11 | 1455.8 ± 0.88
298.15 K, x2 = 0.5026 | 921.385 ± 0.11 | 1434.1 ± 0.88
298.15 K, x2 = 0.5467 | 911.916 ± 0.12 | 1414.9 ± 0.87
298.15 K, x2 = 0.6019 | 899.666 ± 0.12 | 1390 ± 0.86
298.15 K, x2 = 0.6481 | 889.131 ± 0.12 | 1368.5 ± 0.86
298.15 K, x2 = 0.7048 | 875.989 ± 0.13 | 1341.9 ± 0.85
298.15 K, x2 = 0.7451 | 866.153 ± 0.13 | 1322 ± 0.84
298.15 K, x2 = 0.803 | 851.853 ± 0.14 | 1293.2 ± 0.83
298.15 K, x2 = 0.8487 | 840.349 ± 0.14 | 1270.1 ± 0.83
298.15 K, x2 = 0.9019 | 826.554 ± 0.14 | 1242.8 ± 0.82
298.15 K, x2 = 0.9489 | 813.934 ± 0.15 | 1218 ± 0.81
303.15 K, x2 = 0.0582 | 1002.61 ± 0.091 | 1596.1 ± 0.93
303.15 K, x2 = 0.1097 | 993.104 ± 0.093 | 1575.6 ± 0.92
303.15 K, x2 = 0.1485 | 986.049 ± 0.094 | 1560.3 ± 0.92
303.15 K, x2 = 0.205 | 975.667 ± 0.097 | 1538 ± 0.91
303.15 K, x2 = 0.2507 | 967.388 ± 0.099 | 1520.3 ± 0.9
303.15 K, x2 = 0.3064 | 956.964 ± 0.1 | 1497.9 ± 0.9
303.15 K, x2 = 0.3426 | 949.873 ± 0.1 | 1483 ± 0.89
303.15 K, x2 = 0.414 | 935.434 ± 0.11 | 1453.3 ± 0.88
303.15 K, x2 = 0.447 | 928.634 ± 0.11 | 1439.5 ± 0.88
303.15 K, x2 = 0.491 | 919.218 ± 0.11 | 1420.3 ± 0.87
303.15 K, x2 = 0.5537 | 905.656 ± 0.12 | 1392.7 ± 0.86
303.15 K, x2 = 0.6044 | 894.417 ± 0.12 | 1369.8 ± 0.86
303.15 K, x2 = 0.6434 | 885.415 ± 0.12 | 1351.5 ± 0.85
303.15 K, x2 = 0.7038 | 871.181 ± 0.13 | 1322.6 ± 0.84
303.15 K, x2 = 0.7716 | 854.721 ± 0.13 | 1289.4 ± 0.83
303.15 K, x2 = 0.8079 | 845.614 ± 0.14 | 1271.1 ± 0.83
303.15 K, x2 = 0.8481 | 835.388 ± 0.14 | 1250.6 ± 0.82
303.15 K, x2 = 0.8988 | 822.096 ± 0.14 | 1224.2 ± 0.81
303.15 K, x2 = 0.9466 | 809.221 ± 0.15 | 1199 ± 0.81
